Reference: US10314803B2, “Pharmaceutical composition comprising eicosapentaenoic acid and nicotinic acid and methods of using same” (Amarin Pharmaceuticals Ireland Limited, priority 2008, dated 2019)

Test system: RBC arachidonic acid
Test: Red blood cell (RBC) EPA incorporation and arachidonic acid analysis in patients given ethyl-EPA
Type: in vivo, human
Details: patients, 0.5, 1, 2 or 4 g of 97% pure ethyl-EPA/day for 12 weeks; FIG. 1, average of several clinical studies
Method: An analysis was performed to assess the impact of red blood cell (RBC) EPA incorporation on arachidonic acid formation. In various studies, patients were randomized, on a double-blind basis, to receive either placebo (liquid paraffin) or 0.5 1, 2 or 4 g of 97% pure ethyl-EPA/day for 12 weeks. All the doses were administered in eight identical appearing capsules. RBCs were analyzed for EPA and AA following in general the methodology of Manku et al. M. S. Manku, D. F. Horrobin, Y. S. Huang and N. Morse, Fatty acids in plasma and red cell membranes in normal humans. Lipids 18 (1983), pp. 906-908).
Venous blood was collected into a tube pretreated with EDTA and centrifuged at 1500 gav for 15 min. The plasma layer and the buffy coat were separated off and the red cells washed with an equal volume of 0.9% saline. Samples were stored at −80° C. prior to analysis. On thawing, the RBCs were suspended in NaCL/H2SO4aq. (17 mmol/l NaCl, 1 mmol/l Sulfuric acid, 1.8 ml), then shaken with methanol (3 ml). Chloroform (6 ml) and C17:O internal standard were added and the sample was stirred vigorously using a vortex mixer. […] The resulting methyl esters of the fatty acids were separated and measured using a Hewlett-Packard HP5890 Series II Plus Gas chromatograph (cp-wax 52CB 25 m capillary column, Chrompack UK). […]

## CC/C=C\C/C=C\C/C=C\C/C=C\C/C=C\CCCC(=O)OCC [EPA, eicosapentaenoic acid ethyl ester]
  RBC EPA: increased
